Laboratory results: patent US20170158776A1, “TREATMENT OF LUNG CANCER USING A COMBINATION OF AN ANTI-PD-1 ANTIBODY AND ANOTHER ANTI-CANCER AGENT” (Bristol-Myers Squibb Company, priority 2014, published 2017)
Values joined by “and” are separate entries in the source; they are usually repeats but may differ in a detail not shown here. Equal values may be shown once. “Also recorded” adds a separate entry of the source. Marks after values point to notes of the source that are not given here.

What was measured:
[1] = tested on: EGFR MT NSCLC; details: first-line treatment of EGFR MT NSCLC; cited from earlier work
[2] = tested on: heavily pretreated patients with advanced NSCLC; experiment: CA209-003 phase 1: nivolumab monotherapy, safety
[3] = tested on: patients with NSCLC; experiment: Nivolumab monotherapy arm (Arm F), efficacy; assay type: in vivo, human
Method: (§1) One arm was developed to test the effect of nivolumab monotherapy on NSCLC. Patients were treated with 3 mg/kg nivolumab (nivo) q2w (once every 2 weeks).

[4] = tested on: heavily pretreated patients with advanced NSCLC; experiment: CA209-003 phase 1: nivolumab monotherapy, efficacy (RECIST 1.0, OS, subgroups, PD-L1); assay type: in vivo, human
Method: Objective response rate (ORR) was analyzed according to select patient characteristics (age, gender, Eastern Cooperative Oncology Group performance status [ECOG PS], histology, number of prior therapies, prior tyrosine kinase inhibitor [TKI] therapy, epidermal growth factor receptor [EGFR] and Kirsten rat sarcoma viral oncogene homolog [KRAS] mutational status).
PD-L1 expression in archived tumor samples was measured using the Dako immunohistochemistry (IHC) assay. Positive staining with this assay was defined as tumor membrane staining at any intensity, and was analyzed with cut-off values of 1% and 5% expression to assess PD-L1 positivity (Butte M J, et al.). Tumor PD-L1 expression was evaluated for potential association with clinical endpoints.

[5] = tested on: pts with advanced NSCLC after first-line PT-based chemotherapy; experiment: Phase 1: switch to nivolumab maintenance as monotherapy or with bevacizumab, efficacy (RECIST 1.1); assay type: in vivo, human
Method: (§2) Pts with no progression within 42 days of completing ≧4 cycles first-line PT-based chemotherapy (±BEV) were assigned to either nivolumab (N) 5 mg/kg IV Q3W+BEV 15 mg/kg IV Q3W (non-squamous [non-sq] pts only; n=12) or N 3 mg/kg IV Q2W monotherapy (sq arm [n===8] or non-sq arm [n=13]) until progression/unacceptable toxicity (treatment beyond progression allowed based on protocol-defined criteria). ORR was evaluated using RECIST 1.1.

[6] = tested on: pts with advanced NSCLC after first-line PT-based chemotherapy; parameters: species or system human; details: in vivo
Method: as §2

[7] = tested on: patients with NSCLC; experiment: Nivolumab monotherapy arm (Arm F), safety; assay type: in vivo, human; details: 3 mg/kg q2w
Method: as §1

[8] = target: T1, PD-1 (Homo sapiens, UniProt Q15116); details: 15 subjects, 0.3 mg/kg to 10 mg/kg, across all doses, cited from earlier work
T1 construct: Receptor-occupancy data from 15 subjects who received 0.3 mg/kg to 10 mg/kg dosing with nivolumab; endogenous in cells
T1 sequence (Q15116 25-288): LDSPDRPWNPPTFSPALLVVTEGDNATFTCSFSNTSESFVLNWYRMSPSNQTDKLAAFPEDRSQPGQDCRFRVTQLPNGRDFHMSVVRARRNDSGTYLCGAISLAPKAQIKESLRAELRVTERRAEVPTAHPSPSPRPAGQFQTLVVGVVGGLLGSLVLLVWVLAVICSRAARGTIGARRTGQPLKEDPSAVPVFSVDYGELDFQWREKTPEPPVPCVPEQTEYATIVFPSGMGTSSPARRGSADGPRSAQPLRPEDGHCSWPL

## C#Cc1cccc(Nc2ncnc3cc(OCCOC)c(OCCOC)cc23)c1 [erlotinib]
[1]
  median progression-free survival (PFS): 10.4 months

## nivolumab
[2]; N = 129
  Patients with any treatment-related select AE, Any Grade: 41 (53) % (n)
  Patients with any treatment-related select AE, Grade 3-4: 5 (6) % (n)
  select AE Endocrinopathies, Any Grade: 6 (8) % (n)
  select AE Endocrinopathies, Grade 3-4: 0 % (n)
  select AE Gastrointestinal, Any Grade: 12 (15) % (n)
  select AE Gastrointestinal, Grade 3-4: 1 (1) % (n)
  select AE Hepatic, Any Grade: 5 (6) % (n)
  select AE Hepatic, Grade 3-4: 1 (1) % (n)
  select AE Infusion reaction, Any Grade: 4 (5) % (n)
  select AE Infusion reaction, Grade 3-4: 1 (1) % (n)
  select AE Pulmonary, Any Grade: 7 (9)^c % (n)
  select AE Pulmonary, Grade 3-4: 2 (3) % (n)
  select AE Renal, Any Grade: 3(4) % (n)
  select AE Renal, Grade 3-4: 0 % (n)
  select AE Skin, Any Grade: 16 (20) % (n)
  select AE Skin, Grade 3-4: 0 % (n)
[2]; NSCLC cohort
  decreased appetite: 12%
  diarrhea: 10%
  fatigue: 24%
[2]; NSCLC cohort (n = 129)
  Rate of grade 3-4 treatment-related AEs: 14%
[2]; NSCLC cohort, 4 patients
  patients with grade 3-5 treatment-related pneumonitis: 3%
[2]; NSCLC cohort, 12 patients
  patients with treatment-related pulmonary events: 9%
[2]; all associated with pneumonitis
  treatment-related deaths: Three
[2]; overall study patient population (N = 306)
  Rate of grade 3-4 treatment-related AEs: 17%
[2]; up to 10 mg/kg every two weeks
  maximum tolerated dose: without reaching the maximum tolerated does (MTD); also recorded: A maximum tolerated dose was not reached
[3]; Arm F (n = 52)
  Best Overall Response: CR: 4 (8%)
  Best Overall Response: PD: 20 (38%)
  Best Overall Response: PR: 8 (15%)
  Best Overall Response: SD: 14 (27%)
  Best Overall Response: Unable to determine: 6 (12%)
  Best Overall Response: Unconfirmed PR: 0
  Confirmed DCR: 26 (50%)
  Confirmed ORR: 12 (23%)
  Overall DCR: 26 (50%)
  Overall ORR: 12 (23%)
[3]; Arm F N = 52
  >80% target lesion reduction at 18 wks: 3 (6%)
  Median OS: 22.6 mos
  Median PFS: 15.6 wks
  Number of responders: 12 (23%)
  OS rate at 12 months: 74%
  Ongoing responder: 8 (67%)
  PFS rate at 24 weeks: 41%
[3]; Non-squamous (n = 39)
  Best Overall Response: CR: 3 (8%)
  Best Overall Response: PD: 7 (18%)
  Best Overall Response: PR: 7 (18%)
  Best Overall Response: SD: 0
  Best Overall Response: Unable to determine: 6 (15%)
  Best Overall Response: Unconfirmed PR: 0
  Confirmed DCR: 18 (46%)
  Confirmed ORR: 10 (26%)
  Overall DCR: 18 (46%)
  Overall ORR: 10 (26%)
[3]; Squamous (n = 13)
  Best Overall Response: CR: 1 (8%)
  Best Overall Response: PD: 5 (38%)
  Best Overall Response: PR: 1 (8%)
  Best Overall Response: SD: 6 (46%)
  Best Overall Response: Unable to determine: 0
  Best Overall Response: Unconfirmed PR: 0
  Confirmed DCR: 8 (62%)
  Confirmed ORR: 2 (15%)
  Overall DCR: 8 (62%)
  Overall ORR: 2 (15%)
[4]; 1 mg/kg
  Estimated Median DOR: 63.9 wks
  Median OS: 9.2 mo
  Median PFS: 1.8 mo
  ORR: 3.0%
  OS Rate 1-year: 32%
  OS Rate 2-year: 12%
[4]; 3 mg/kg
  Estimated Median DOR: 74.0 wks
  Median OS: 14.9 mo
  Median PFS: 1.9 mo
  ORR: 24% and 24.3%
  OS Rate 1-year: 56%
  OS Rate 2-year: 45%
[4]; 10 mg/kg
  Estimated Median DOR: 83.1 wks
  Median OS: 9.2 mo
  Median PFS: 3.7 mo
  ORR: 20.3%
  OS Rate 1-year: 40%
  OS Rate 2-year: 19%
[4]; 5 of 6
  of these, responses ongoing at the time of reporting: 83%
[4]; 6/16
  responders who discontinued for reasons other than disease progression and responded for >30 weeks after the last dose: 38%
[4]; 10/22
  Responses ongoing at the time of analysis: 45%
[4]; 11/22
  patients with ORs with response at first assessment (8 weeks): 50%
[4]; All doses
  Estimated Median DOR: 74 wks and 74.0 wks
  Median OS: 9.9 mo
  Median PFS: 2.3 mo
  ORR: 17%
  OS Rate 1-year: 42%
  OS Rate 2-year: 24%
[4]; Non-squamous, 1 mg/kg
  Median OS (95% CI): 9.9 (5.3, 22.5) mo
  ORR: 5.6 (1/18) % (n/N)
  OS Rate 1-year (95% CI): 36 (15, 58)
  OS Rate 2-year (95% CI): 15 (3, 36)
[4]; Non-squamous, 3 mg/kg
  Median OS (95% CI): 18.2 (5.2, NE) mo
  ORR: 26.3 (5/19) % (n/N)
  OS Rate 1-year (95% CI): 62 (37, 80)
  OS Rate 2-year (95% CI): 48 (22, 69)
[4]; Non-squamous, 10 mg/kg
  Median OS (95% CI): 7.4 (4.5, 12.4) mo
  ORR: 18.9 (7/37) % (n/N)
  OS Rate 1-year (95% CI): 36 (21, 52)
  OS Rate 2-year (95% CI): 15 (6, 29)
[4]; Non-squamous, All doses
  Median OS (95% CI): 10.1 mo and 10.1 (5.7, 13.7) mo
  ORR: 17.6 (13/74) % (n/N)
  OS Rate 1-year (95% CI): 43 (32, 54)
  OS Rate 2-year (95% CI): 23 (13, 34)
[4]; PD-L1+ (5% cut-off), Non-squamous
  ORR: 17 (3/18) % (n/N)
[4]; PD-L1+ (5% cut-off), Squamous
  ORR: 13 (2/15) % (n/N)
[4]; PD-L1+ tumors
  Median OS: 7.8 months
  Median PFS: 3.6 months
[4]; PD-L1 cut-off 1%, Negative
  ORR: 17 (5/30) % (n/N)
[4]; PD-L1 cut-off 1%, Positive
  ORR: 13 (5/38) % (n/N)
[4]; PD-L1 cut-off 5%, Negative, all patients
  ORR: 14 (5/35) % (n/N)
[4]; PD-L1 cut-off 5%, Positive, all patients
  ORR: 15 (5/33) % (n/N)
[4]; PD-L1− (5% cut-off), Non-squamous
  ORR: 10 (2/21) % (n/N)
[4]; PD-L1− (5% cut-off), Squamous
  ORR: 21 (3/14) % (n/N)
[4]; PD-L1− tumors
  Median OS: 10.5 months
  Median PFS: 1.8 months
[4]; Squamous, 1 mg/kg
  Median OS (95% CI): 8.0 (2.4, 13.3) mo
  ORR: 0 (0/15) % (n/N)
  OS Rate 1-year (95% CI): 27 (7, 51)
  OS Rate 2-year (95% CI): 9 (1, 32)
[4]; Squamous, 3 mg/kg
  Median OS (95% CI): 9.5 (5.3, NE) mo
  ORR: 22.2 (4/18) % (n/N)
  OS Rate 1-year (95% CI): 49 (23, 71)
  OS Rate 2-year (95% CI): 41 (17, 64)
[4]; Squamous, 10 mg/kg
  Median OS (95% CI): 10.5 (4.9, 16.7) mo
  ORR: 23.8 (5/21) % (n/N)
  OS Rate 1-year (95% CI): 43 (22, 62)
  OS Rate 2-year (95% CI): 22 (7, 42)
[4]; Squamous, All doses
  Median OS (95% CI): 9.2 mo and 9.2 (7.3, 12.5) mo
  ORR: 16.7 (9/54) % (n/N)
  OS Rate 1-year (95% CI): 40 (27, 54)
  OS Rate 2-year (95% CI): 24 (13, 37)
[4]; across doses
  patients maintaining SD for ≧48 weeks: 5%
[5]; all pts of the treatment
  Stable disease as best overall response: 48%
[5]; non-sq pts
  Median PFS: 21.4 weeks
  Stable disease as best overall response: 46%
[5]; sq pts
  Median PFS: 16.0 weeks
  Stable disease as best overall response: 50%
[5]; switch maintenance
  Median OS: not reached
[5]; switch maintenance, RECIST 1.1
  ORR: 10%
[6]
  Any-grade treatment-related adverse events: 62%
  grade 3 pleural effusion: 1 n
  grade 3 pneumonitis: 2 n
  pts discontinued due to treatment-related AEs: Four
  treatment-related grade 4 AEs: No treatment-related grade 4 AEs were reported
[7]; n = 52
  Arthralgia, All Gr: 5 (9.6) n (%)
  Arthralgia, GR ¾: 0 n (%)
  Constipation, All Gr: 3 (5.8) n (%)
  Constipation, GR ¾: 0 n (%)
  Diarrhea, All Gr: 6 (11.5) n (%)
  Diarrhea, GR ¾: 1 (1.9) n (%)
  Fatigue, All Gr: 15 (28.8) n (%)
  Fatigue, GR ¾: 0 n (%)
  Hypothyriodism, All Gr: 3 (5.8) n (%)
  Hypothyriodism, GR ¾: 0 n (%)
  Nausea, All Gr: 7 (13.5) n (%)
  Nausea, GR ¾: 0 n (%)
  Pneumonitis, All Gr: 3 (5.8) n (%)
  Pneumonitis, GR ¾: 1 (1.9) n (%)
  Pruritus, All Gr: 6 (11.5) n (%)
  Pruritus, GR ¾: 0 n (%)
  Rash, All Gr: 10 (19.2) n (%)
  Rash, GR ¾: 2 (3.8) n (%)
  Total patients with an event, All Gr: 37 (71.2) n (%)
  Total patients with an event, GR ¾: 10 (19.2) n (%)
  Vomiting, All Gr: 3 (5.8) n (%)
  Vomiting, GR ¾: 0 n (%)
[7]; 52 treated
  Discontinued subjects: Toxicity: 6 (12%)
[8]; range 59% to 81%
  mean plateau PD-1 occupancy: 72%
[8]; range 70% to 97%
  mean PD-1 occupancy rate: 85%
